Reference: patent publication US7202239B2, “Cyclohexylphenyl carboxamides tocolytic oxytocin receptor antagonists” (Wyeth, priority 2001, dated 2007)

In the case of `O=C(c1ccc(C2CCCCC2)cc1)N1Cc2cccn2Cc2ccccc21` [Example 4, 10-(4-Cyclohexyl-benzoyl)-10,11-dihydro-5H-pyrrolo[2,1-c][1,4]benzodiazepine], the melting point is reported as 127 to 129 °C.
